We go through 21 molecules from patent US20250074913A1, “PYRAZOLE DERIVATIVES AS STING AGONISTS” (Hoffmann-La Roche Inc., priority 2022, published 2025).

Where two headings read alike, the source gives them in different places.

Assay [1] concerns human PBMC. In words: hPBMC cytokine release assay (Luminex, IFN-β). It counts as cell-based. Conditions: read-out: Agonist_hPBMC_IFN-β_EC50. On the procedure: This is the cytokines concentration detection with Luminex assay for human PBMC supernatant. Human peripheral blood mononuclear cells (PBMC) are treated by compounds with appropriate time. Multiple cytokines are released in the supernatant in response to the compound stimulation. Luminex assay can measure the cytokines concentration in supernatant and the compounds activity on human PBMC can be evaluated.
Frozen PBMC was thawed and cultured in PRMI1640 (GIBCO 11875-093) whole medium with […] Heat inactivated-FBS (HI—FBS), 1% NEAA, […] in CO2 incubator overnight. Cells were centrifuged at 400×g for 5 minutes at 4° C. and the pellet was re-suspended with complete RPMI1640 medium to concentration of 1×10^6 cells/ml in cell culture flask T75 (Thermo Fisher Scientific). Compounds were serially diluted with DMSO and distributed to 96-well flat bottom cell plate (Corning 3599) with Echo555. 90 μL/well PBMC cells were seeded into the plates with Multidrop (Thermo Fisher Scientific). After 24 hours of incubation in CO2 incubator, cells were centrifuged at 400×g for 5 minutes at room temperature, 80 μL supernatant each well was collected for cytokines release test with luminex assay of Human custom ProcartaPlex 5-plex kit (Thermo Fisher Scientific PPX-05). 10 μL supernatant or standards were added to a mixture of color-coded beads, 5 μL Biotinylated detection antibodies specific to the analytes of interest were added and formed an antibody-antigen sandwich. 10 μL Phycoerythrin (PE)-conjugated streptavidin is added to the plate and then read signal of each well on the Luminex 200™. The raw data was analyzed by Millipore Analyst Software and cytokine concentrations were generated accordingly. The EC50 of corresponding cytokine such as interferon-β (IFN-β) was calculated by the 4-parameter sigmoidal concentration response model fitting.

Assay [2] deals with interferon regulatory factor (IRF) pathway in THP1-Dual™ cells. In words: THP1-Dual reporter gene assay (Agonist_THP1_EC50). The note with it: Homo sapiens, 20-24 hrs compound treatment, Lucia luciferase (IRF) readout. It counts as cell-based. From the text:
This is the cellular reporter assay to evaluate compounds' agonism to interferon regulatory factor (IRF) pathway in THP1-Dual™ cells (InvivoGen, cat number thpd-nfis). THP1-Dual™ cells were derived from the human THP-1 monocyte cell line by stable integration lucia luciferase gene, a new secreted luciferase reporter gene, under the control of an ISG54 (interferon-stimulated gene) minimal promoter in conjunction with five interferon (IFN)-stimulated response elements. As a result, THP1-Dual™ cells allow the study of the IRF pathway, by assessing the activity of Lucia luciferase. Lucia luciferase protein is readily measurable in the cell culture supernatant when using QUANTI-Luc™ (InvivoGen, cat: rep-qlcg-500).
After 20-24 hrs compound treatment in THP1-Dual cells, the compounds' agonism to IRF pathway and cell toxicity were tested by measuring luminescence and OD 450 on an Envision plate reader.
On the day of experiment, 30 μL of test medium (RPMI 1640, 2 mM L-glutamine, 25 mM HEPES, […] heat-inactivated fetal bovine serum) was dispensed in a white 384-well plate (Grenier, cat: 781098) containing the serially diluted compounds (final 1% DMSO) transferred by the Echo550 machine. Then 30 μL of cell suspension (˜33,000 cells, 1.1×10^6 cells/mL) per well was added immediately by thermo multidrop combi dispenser for incubation 20-24 h at 37° C., […]. At the end of the incubation, 10 μL of cellular supernatant was transferred to proxiplate 384-plus plate for IRF detection, and then 10 μL of QUANTI-Luc™ Gold solution was added to the plate that proceeded with the measurement immediately. To detect cell viability, 30 μL of the CCK-8 working solution (Dojindo Molecular Technologies, cat: CK04-20) was added to the cell plate, which was Incubated for 2 hrs in the incubator to measure the absorbance at 450 nm using Envision.
(In general: In a reporter assay the amount or activity of a reporter protein is the signal.)

Setting [3] is: 24 hours incubation, IFN-β in supernatant.

On to `CCn1nc(C)c(O)c1-c1nc(-c2nc(C(N)=O)cc3c2cnn3C)co1` [AE01, reference compound], for which, in assay [1] (prior art compounds (Table 4), IFN-β), the EC50 is 40 nM.
Consider `Cc1nn(CC=C(F)F)c(-c2n[nH]c(-c3nc(C(N)=O)cc4c3cnn4C)n2)c1O` [Example 34, 4-[3-[2-(3,3-difluoroallyl)-4-hydroxy-5-methyl-pyrazol-3-yl]-1H-1,2,4-triazol-5-yl]-1-methyl-pyrazolo[4,3-c]pyridine-6-carboxamide], for which the EC50 came out at 12 nM in assay [2] and 11 nM in assay [1] (setting [3]).
With `CC#CCCn1nc(C)c(O)c1-c1n[nH]c(-c2nc(C(N)=O)cc3c2cnn3C)n1` [Example 45, 4-[3-(4-hydroxy-5-methyl-2-pent-3-ynyl-pyrazol-3-yl)-1H-1,2,4-triazol-5-yl]-1-methyl-pyrazolo[4,3-c]pyridine-6-carboxamide], the EC50 in assay [2] and in assay [1] (setting [3]) was 9 nM throughout.
`Cc1cc2c(C(N)=O)nn(-c3nc(-c4c(O)c(C)nn4CCc4ccc(F)cc4)n[nH]3)c2cn1` [Example 52, 1-[3-[2-[2-(4-fluorophenyl)ethyl]-4-hydroxy-5-methyl-pyrazol-3-yl]-1H-1,2,4-triazol-5-yl]-5-methyl-pyrazolo[3,4-c]pyridine-3-carboxamide]: the EC50 in assay [2] stood at 13 nM; in assay [1] (setting [3]), 18 nM.
Take `Cc1cn2c(C(N)=O)nc(-c3nc(-c4c(O)c(C)nn4CCc4ccccc4)n[nH]3)c2cn1` [Example 53, 1-[3-[4-hydroxy-5-methyl-2-(2-phenylethyl)pyrazol-3-yl]-1H-1,2,4-triazol-5-yl]-6-methyl-imidazo[1,5-a]pyrazine-3-carboxamide]: the figures for the EC50 in assay [2] and in assay [1] (setting [3]) were 12 nM and 26 nM, respectively.
With `Cc1cc2c(C(N)=O)nn(-c3nc(-c4c(O)c(C)nn4CCc4cccc(F)c4)n[nH]3)c2cn1` [Example 55, 1-(3-(1-(3-fluorophenethyl)-4-hydroxy-3-methyl-1H-pyrazol-5-yl)-1H-1,2,4-triazol-5-yl)-5-methyl-1H-pyrazolo[3,4-c]pyridine-3-carboxamide], the EC50 in assay [2] was 13 nM; in assay [1] (setting [3]) it was 32 nM.
In the case of `CCCn1nc(C)c(O)c1-c1nc(-n2nc(C(N)=O)c3cc(C)ncc32)co1` [Example 58, 1-(2-(4-hydroxy-3-methyl-1-propyl-1H-pyrazol-5-yl)oxazol-4-yl)-5-methyl-1H-pyrazolo[3,4-c]pyridine-3-carboxamide], the EC50 in assay [2] was 6 nM; in assay [1] (setting [3]) it was 17 nM.
For `CCCCn1nc(C)c(O)c1-c1nc(-n2nc(C(N)=O)c3cc(C)ncc32)co1` [Example 59, 1-(2-(1-butyl-4-hydroxy-3-methyl-1H-pyrazol-5-yl)oxazol-4-yl)-5-methyl-1H-pyrazolo[3,4-c]pyridine-3-carboxamide], in that order: 10 nM and 7 nM.
`COCc1ccc(CCn2nc(C)c(O)c2-c2n[nH]c(-n3nc(C(N)=O)c4cc(C)ncc43)n2)cc1` [Example 64, 1-[3-[4-hydroxy-2-[2-[4-(methoxymethyl)phenyl]ethyl]-5-methyl-pyrazol-3-yl]-11H-1,2,4-triazol-5-yl]-5-methyl-pyrazolo[3,4-c]pyridine-3-carboxamide]: the EC50 in assay [2] was determined as 13 nM; in assay [1] (setting [3]), 35 nM.
For `Cc1cc2c(C(N)=O)nn(-c3coc(-c4c(O)c(C)nn4CCC(F)F)n3)c2cn1` [Example 67, 1-(2-(1-(3,3-difluoropropyl)-4-hydroxy-3-methyl-1H-pyrazol-5-yl)oxazol-4-yl)-5-methyl-1H-pyrazolo[3,4-c]pyridine-3-carboxamide], in that order: 18 nM and 24 nM.
With `COc1ccc(CCn2nc(C)c(O)c2-c2n[nH]c(-c3nc(C(N)=O)n4cc(C)ncc34)n2)cc1` [Example 70, 1-[3-[4-hydroxy-2-[2-(4-methoxyphenyl)ethyl]-5-methyl-pyrazol-3-yl]-1H-1,2,4-triazol-5-yl]-6-methyl-imidazo[1,5-a]pyrazine-3-carboxamide], the EC50 in assay [2] stood at 6 nM; in assay [1] (setting [3]) it was 10 nM.
As to `CCCCn1nc(C)c(O)c1-c1n[nH]c(-c2c(F)c(C(N)=O)n3cc(C)ncc23)n1` [Example 76, 8-[3-(2-butyl-4-hydroxy-5-methyl-pyrazol-3-yl)-1H-1,2,4-triazol-5-yl]-7-fluoro-3-methyl-pyrrolo[1,2-a]pyrazine-6-carboxamide], the EC50 in assay [2] was found to be 15 nM; in assay [1] (setting [3]) it was 14 nM.
For `CCCCn1nc(C)c(O)c1-c1n[nH]c(-c2nc(C(N)=O)n3cc(C)ncc23)n1` [Example 77, 1-[3-(2-butyl-4-hydroxy-5-methyl-pyrazol-3-yl)-1H-1,2,4-triazol-5-yl]-6-methyl-imidazo[1,5-a]pyrazine-3-carboxamide], in that order: 17 nM and 20 nM.
For `CCCn1nc(C)c(O)c1-c1n[nH]c(-c2nc(C(N)=O)n3cc(C)ncc23)n1` [Example 80, 1-[3-(4-hydroxy-5-methyl-2-propyl-pyrazol-3-yl)-1H-1,2,4-triazol-5-yl]-6-methyl-imidazo[1,5-a]pyrazine-3-carboxamide], in that order: 20 nM and 42 nM.
Consider `Cc1nn(CCc2ccccc2)c(-c2n[nH]c(-c3nc(C(N)=O)cc4c3cnn4C)n2)c1O` [Example 82, 4-(5-(4-hydroxy-3-methyl-1-phenethyl-1H-pyrazol-5-yl)-2H-1,2,4-triazol-3-yl)-1-methyl-1H-pyrazolo[4,3-c]pyridine-6-carboxamide], for which the EC50 in assay [2] is 8 nM; in assay [1] (setting [3]), 29 nM.
On to `CCCn1nc(C)c(O)c1-c1nc(-n2nc(C(N)=O)c3cc(C)ncc32)c(CO)o1` [Example 83, 1-[5-(hydroxymethyl)-2-(4-hydroxy-5-methyl-2-propyl-pyrazol-3-yl)oxazol-4-yl]-5-methyl-pyrazolo[3,4-c]pyridine-3-carboxamide], for which the EC50 in assay [2] was 22 nM; in assay [1] (setting [3]), 23 nM.
Molecule `Cc1cn2c(C(N)=O)nc(-c3nc(-c4c(O)c(C)nn4CCc4ccc(CN5CCOCC5)cc4)n[nH]3)c2cn1` [Example 87, 1-[3-[4-hydroxy-5-methyl-2-[2-[4-(morpholinomethyl)phenyl]ethyl]pyrazol-3-yl]-1H-1,2,4-triazol-5-yl]-6-methyl-imidazo[1,5-a]pyrazine-3-carboxamide] returned an EC50 in assay [2] of 53 nM.
On the same count and under the same terms, under `Cc1cc2c(C(N)=O)nn(-c3coc(-c4c(O)c(C)nn4CCc4ccc(CN5CCOCC5)cc4)n3)c2cn1` [Example 88, 1-[2-[4-hydroxy-5-methyl-2-[2-[4-(morpholinomethyl)phenyl]ethyl]pyrazol-3-yl]oxazol-4-yl]-5-methyl-pyrazolo[3,4-c]pyridine-3-carboxamide] stands 179 nM; under `COCc1ccc(CCn2nc(C)c(O)c2-c2nc(-n3nc(C(N)=O)c4cc(C)ncc43)co2)cc1` [Example 89, 1-[2-[4-hydroxy-2-[2-[4-(methoxymethyl)phenyl]ethyl]-5-methyl-pyrazol-3-yl]oxazol-4-yl]-5-methyl-pyrazolo[3,4-c]pyridine-3-carboxamide], 55 nM; under `Cc1cn2c(C(N)=O)nc(-c3nc(-c4c(O)c(C)nn4CCc4nccs4)n[nH]3)c2cn1` [Example 90, 1-[3-[4-hydroxy-5-methyl-2-(2-thiazol-2-ylethyl)pyrazol-3-yl]-1H-1,2,4-triazol-5-yl]-6-methyl-imidazo[1,5-a]pyrazine-3-carboxamide], 30 nM.
`CCCn1nc(C)c(O)c1-c1nc(-c2nc(C(N)=O)n3cc(C)ncc23)n(C)n1` [Example 92, 1-[5-(4-hydroxy-5-methyl-2-propyl-pyrazol-3-yl)-2-methyl-1,2,4-triazol-3-yl]-6-methyl-imidazo[1,5-a]pyrazine-3-carboxamide] showed an EC50 in assay [2] of 222 nM.
